In patent US20240199600A1, “CONDENSED HETEROCYCLIC COMPOUND HAVING A SULFONAMIDE GROUP OR SALT THEREOF, AGRICULTURAL OR HORTICULTURAL INSECTICIDE OR ANIMAL ECTOPARASITE OR ENDOPARASITE CONTROL AGENT COMPRISING THE COMPOUND OR THE SALT THEREOF, AND METHOD FOR USING THE COMPOUND OR THE SALT THEREOF, THE INSECTICIDE, OR THE …” (NIHON NOHYAKU CO., LTD., priority 2021, published 2024):

Tests used:
[1] = test system: Plutella xylostella; assay: whole plant or invertebrate; details: in Brassica rapa, 144 h, read-out: insecticidal efficacy (corrected mortality rate), activity level
Description: Insecticidal test on Plutella xylostella
Adults of P. xylostella were released onto Chinese cabbage seedlings and allowed to lay eggs thereon. […] After air-dried, the seedlings were kept in a thermostatic chamber at 25° C. […] This test was conducted in triplicate using 10 adults of P. xviostella per plot.
Corrected mortality rate (%)100×(Number of hatched larvae in a non-treatment plot-Number of hatched larvae in a treatment plot)/Number of hatched larvae in a non-treatment plot [Math. 3]

[2] = test system: Laodelphax striatelius; assay: whole plant or invertebrate; details: in Oryza sativa, 192 h, read-out: insecticidal efficacy (corrected mortality rate), activity level
Description: Insecticidal test on Laodelphax striatelius
The sulfonamide group-containing condensed heterocyclic compounds represented by the general formula (1) of the present invention or salts thereof were separately dispersed in water and diluted to 500 ppm. Rice plant seedlings (variety: Nihonbare) were dipped in the agrochenrical dispersions for 30 seconds. After air-dried, each seedling was put into a separate glass test tube and inoculated with ten 3rd-instar larvae of L, striatellus, and then the glass test tubes were capped with cotton plugs. At 8 days after the inoculation, the numbers of surviving larvae and dead larvae were counted to determine the survival rate, the corrected mortality rate was calculated according to the formula shown below, and the insecticidal efficacy was evaluated according to the criteria shown below.

SMILES: CN(C)S(=O)(=O)c1cc(C2CC2)cnc1-c1nc2cc(SC(F)(F)F)ccc2o1 [Compound 4-6, 5-cyclopropyl-N,N-dimethyl-2-(5-trifluoromethylthiobenzoxazol-2-yl)pyridine-3-sulfonamide]
- mortality at 500 ppm [1]: 100%
- mortality at 500 ppm [2]: 100%
